According to ChEMBL document CHEMBL1141524 (Bioorg Med Chem Lett, 2008):
Values joined by “and” are separate entries in the source; they are usually repeats but may differ in a detail not shown here. Equal values may be shown once. Non-standard residues stand in square brackets, D forms with d. Residues, ends and D or L forms follow the SMILES beside them. Gly(N-4-hydroxybenzyl) = O=C(O)CNCc1ccc(O)cc1

assay: Displacement of [3H]neurotensin from pig NTR1; parameters: species or system Sus scrofa

| Compound | Ki |
| --- | --- |
| CC[C@H](C)[C@H](NC(=O)[C@H](Cc1ccc(O)cc1)NC(=O)[C@@H]1CCCN1C(=O)[C@H](CCCCN)NC(=O)[C@@H](N)CCCCN)C(=O)N[C@@H](CC(C)C)C(=O)O | 2.6 nM |
| CC[C@H](C)[C@H](NC(=O)[C@H](Cc1ccc(O)cc1)NC(=O)C[C@@H]1CCCN1C(=O)[C@H](CCCNC(=N)N)NC(=O)[C@@H](N)CCCNC(=N)N)C(=O)N[C@@H](CC(C)C)C(=O)O | 28 nM |
| H-RRPYAIL-OH | 6.8 nM |
| CC[C@H](C)[C@H](NC(=O)[C@H](Cc1ccc(O)cc1)N1CC=C[C@]2(CCCN2C(=O)[C@H](CCCNC(=N)N)NC(=O)[C@@H](N)CCCNC(=N)N)C1=O)C(=O)N[C@@H](CC(C)C)C(=O)O | 7400 nM |
| CC[C@H](C)[C@H](NC(=O)[C@H](Cc1ccc(O)cc1)N1CC/C=C\C[C@H]2CCN(C(=O)[C@H](CCCNC(=N)N)NC(=O)[C@@H](N)CCCNC(=N)N)[C@@H]2C1=O)C(=O)N[C@@H](CC(C)C)C(=O)O | 2400 nM and 8600 nM |
| CC[C@H](C)[C@H](NC(=O)[C@H](Cc1ccc(O)cc1)N1C(=O)NC(=O)C2(CCCN2C(=O)[C@H](CCCNC(=N)N)NC(=O)[C@@H](N)CCCNC(=N)N)C1=O)C(=O)N[C@@H](CC(C)C)C(=O)O (some centres not stated) | 10000 nM |
| CC[C@H](C)[C@H](NC(=O)[C@H](Cc1ccc(O)cc1)N1C(=O)NC(=O)C2(CCCN2C(=O)[C@H](CCCNC(=N)N)NC(=O)[C@@H](N)CCCNC(=N)N)C1=O)C(=O)N[C@@H](CC(C)C)C(=O)O (single isomer, unassigned; diastereomer 1) | 1400 nM |
| CC[C@H](C)[C@H](NC(=O)[C@H](Cc1ccc(O)cc1)NC(=O)[C@@H]1CCCN1C(=O)[C@H](CCCCN)NC(=O)CNCCCCN)C(=O)N[C@@H](CC(C)C)C(=O)O | 0.45 nM |
| H-DRPYIL-OH | 150 nM |
| H-RRPYILA-OH | 0.27 nM |
| CC[C@@H](C)[C@H](NC(=O)[C@H](Cc1ccc(O)cc1)N1CC=CC[C@]2(CCCN2C(=O)[C@H](CCCNC(=N)N)NC(=O)[C@@H](N)CCCNC(=N)N)C1=O)C(=O)N[C@@H](CC(C)C)C(=O)O | 18000 nM |
| CC[C@H](C)[C@H](NC(=O)[C@H](Cc1ccc(O)cc1)NC(=O)[C@@H]1CCCN1C(=O)CN(CCCCN)C(=O)[C@@H](N)CCCCN)C(=O)N[C@@H](CC(C)C)C(=O)O | 5.7 nM |
| CC[C@H](C)[C@H](NC(=O)CN(Cc1ccc(O)cc1)C(=O)[C@@H]1CCCN1C(=O)[C@H](CCCCN)NC(=O)[C@@H](N)CCCCN)C(=O)N[C@@H](CC(C)C)C(=O)O (H-KKP[Gly(N-4-hydroxybenzyl)]IL-OH) | 11000 nM |
| CC[C@H](C)[C@H](NC(=O)[C@H](Cc1ccc(O)cc1)NC(=O)[C@@H]1CCCN1C(=O)[C@H](CCCNC(=N)N)NC(=O)CCC(=O)O)C(=O)N[C@@H](CC(C)C)C(=O)O | 2300 nM |
| CC[C@H](C)[C@H](NC(=O)[C@H](Cc1ccc(O)cc1)NC(=O)[C@@H]1CCCN1C(=O)[C@H](CCCNC(=N)N)NC(=O)C[N+](C)(C)C)C(=O)N[C@@H](CC(C)C)C(=O)O | 0.65 nM |
| H-RRAPYIL-OH | 9.6 nM |
| CC[C@H](C)[C@H](NC(=O)[C@H](Cc1ccc(O)cc1)NC(=O)[C@@H]1CCCN1C(=O)[C@H](CCCNC(=N)N)NC(=O)[C@@H](N)CCCNC(=N)N)C(=O)N[C@@H](CC(C)C)C(N)=O | 0.18 nM |
